One data set in a line: in vitro. The conditions noted are these: rat, microsomes, pH 7.4. The method, then:
The reaction is started by adding 20 μl of the compound to be tested in 20% AcCN to the microsome/buffer mixture preincubated at 37° C. After 0, 15, 30 and 60 minutes, 200 μl of sample solution is withdrawn and subjected to AcCN precipitation. The isolation of the compounds is effected by adding 200 μl of AcCN that contains the internal standard (1 μM) to 200 μl of sample solution and calibration standard. After shaking for 10 s and centrifugation at 4000 g, an aliquot of the supernatant is subjected to LC-MS/MS. Two controls are included: a positive control with 7-ethoxycoumarin as a reference to verify the microsomal enzyme activity, and a negative control in which microsomes are used that were heated for 25 minutes without a regenerating system, in order to ensure that the loss of substance is actually due to metabolization.
The amount of compound in a sample is expressed as the percent fraction of the compound remaining as compared to time t=0 (100%). The percent fraction is plotted versus time.

For another data set, the target named is T1, CYP2C19 (Homo sapiens, UniProt P33261).
T1 construct: purchased Becton Dickinson GmbH (Heidelberg)
Briefly: Inhibition of hepatic CYP enzymes: CYP2C19. In kind it is biochemical. As to conditions: read-out: CYP2C19 IC50 (mean ± SD). The source says: (§1) Drug interactions (inhibition of hepatic CYP enzymes): The inhibition of six human hepatic cytochrome P450 enzymes by selected compounds was examined by means of the kit supplied by Becton Dickinson GmbH (Heidelberg).

A further data set addresses T2, CYP2B6 (Homo sapiens, UniProt P20813).
T2 construct: purchased Becton Dickinson GmbH (Heidelberg)
T2 sequence (P20813 1-491): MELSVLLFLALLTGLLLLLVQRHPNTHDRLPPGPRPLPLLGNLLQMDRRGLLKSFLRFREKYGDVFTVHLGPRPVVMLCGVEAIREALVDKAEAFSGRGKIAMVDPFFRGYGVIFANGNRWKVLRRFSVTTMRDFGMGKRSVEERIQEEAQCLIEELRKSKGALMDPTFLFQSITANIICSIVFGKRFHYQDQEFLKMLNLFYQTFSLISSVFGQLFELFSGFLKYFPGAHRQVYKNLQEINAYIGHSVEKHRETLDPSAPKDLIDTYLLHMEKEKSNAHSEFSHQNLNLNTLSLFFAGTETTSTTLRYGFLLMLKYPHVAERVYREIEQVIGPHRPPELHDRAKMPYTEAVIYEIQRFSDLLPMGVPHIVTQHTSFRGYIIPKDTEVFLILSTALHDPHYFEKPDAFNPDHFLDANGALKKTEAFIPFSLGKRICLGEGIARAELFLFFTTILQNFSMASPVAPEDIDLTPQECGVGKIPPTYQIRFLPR
The data set is described as follows: Inhibition of hepatic CYP enzymes: CYP2B6. The data set is classed as biochemical. The conditions noted are these: read-out: CYP2B6 IC50 (mean ± SD).
Text: as §1

A further data set addresses T3, CYP2D6 (Homo sapiens, UniProt P10635).
T3 construct: purchased Becton Dickinson GmbH (Heidelberg)
The data set is described as follows: Inhibition of hepatic CYP enzymes: CYP2D6. In kind it is biochemical. The conditions noted are these: read-out: CYP2D6 IC50 (mean ± SD).
Text: as §1

In the next data set the test system is CaCo-2 cells. The data set is described as follows: CaCo2 transport assay. The data set is classed as in vitro ADME. The conditions noted are these: 50 μM in donor compartment. How it is done:
Performance of selected compounds in a CaCo2 assay: Caco-2 cell culture and transport experiments were performed according to Yee (Yee, S., Pharm. Res., 14(6): 763-766 (1997)), but slight modifications were introduced. The cultivation times were reduced from 21 to 10 days by increasing the sowing density from 6.3·10^4 to 1.65·10^5 cells per well. […] The initial concentration of the compounds in the donor compartment was 50 μM (in buffer with 1% ethanol or DMSO). Samples were taken from the acceptor side after 60, 120 and 180 min and from the donor side after 0 and 180 min. For glycoprotein P (P-gp) studies, bidirectional experiments were performed. The absorptive and secretory permeabilities (Papp (a-b) and Papp (b-a)) were determined. Thus, erythromycin was used as a substrate, and verapamil was used as an inhibitor of P-gp. Each experiment was performed in triplicate. The integrity of the monolayer was determined by means of TEER (transepithelial electric resistance) and the permeability for each assay was determined using Lucifer Yellow. All samples of the CaCo-2 transport experiments were analyzed by means of LC/MS/MS after dilution with buffer (1:1 with 2% acetic acid). The apparent permeability coefficient (Papp) was calculated by means of the formula given below, where dQ/dt represents the recovery rate of the mass in the acceptor compartment, A represents the surface area of the transwell membrane, and c0 represents the initial concentration in the donor compartment.
In general terms: Caco-2 cells form a polarised layer with tight junctions and transporters.

The next data set addresses T4, CYP3A4 (Homo sapiens, UniProt P08684).
T4 construct: purchased Becton Dickinson GmbH (Heidelberg)
Briefly: Inhibition of hepatic CYP enzymes: CYP3A4. In kind it is biochemical. As to conditions: read-out: CYP3A4 IC50 (mean ± SD).
Text: as §1

For a further data set, the target named is T5, 17β-HSD1 (Homo sapiens, UniProt P14061).
T5 construct: In both cases, human placenta served as the enzyme source; from tissue; host or cells: human placenta
T5 sequence (P14061 1-328): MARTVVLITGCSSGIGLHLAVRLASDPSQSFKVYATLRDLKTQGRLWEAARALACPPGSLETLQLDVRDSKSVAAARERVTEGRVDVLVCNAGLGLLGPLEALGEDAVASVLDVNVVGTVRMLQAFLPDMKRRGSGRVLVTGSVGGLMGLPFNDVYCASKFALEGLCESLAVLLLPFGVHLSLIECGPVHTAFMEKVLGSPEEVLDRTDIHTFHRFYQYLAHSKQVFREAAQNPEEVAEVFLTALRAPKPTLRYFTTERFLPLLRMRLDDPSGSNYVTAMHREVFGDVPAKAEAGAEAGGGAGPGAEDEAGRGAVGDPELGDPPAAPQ
The data set is described as follows: Inhibition of 17β-HSD1 (estrone to estradiol, radio-HPLC). In kind it is biochemical. As to conditions: for IC50: human placenta enzyme, 500 nM estrone, NADH 500 μM; for Selectivity IC50 (17β-HSD2)/IC50 (17β-HSD1): ratio of IC50 values.

The next data set deals with T6, CYP2C9 (Homo sapiens, UniProt P11712).
T6 construct: purchased Becton Dickinson GmbH (Heidelberg)
The data set is described as follows: Inhibition of hepatic CYP enzymes: CYP2C9. In kind it is biochemical. As to conditions: read-out: CYP2C9 IC50 (mean ± SD).
Text: as §1

The IC50 is the midpoint of a concentration-inhibition curve. In general, half-life refers to how long it takes for the measured level to halve. Lower therefore signals rapid decline.

T3 sequence (P10635 whole entry): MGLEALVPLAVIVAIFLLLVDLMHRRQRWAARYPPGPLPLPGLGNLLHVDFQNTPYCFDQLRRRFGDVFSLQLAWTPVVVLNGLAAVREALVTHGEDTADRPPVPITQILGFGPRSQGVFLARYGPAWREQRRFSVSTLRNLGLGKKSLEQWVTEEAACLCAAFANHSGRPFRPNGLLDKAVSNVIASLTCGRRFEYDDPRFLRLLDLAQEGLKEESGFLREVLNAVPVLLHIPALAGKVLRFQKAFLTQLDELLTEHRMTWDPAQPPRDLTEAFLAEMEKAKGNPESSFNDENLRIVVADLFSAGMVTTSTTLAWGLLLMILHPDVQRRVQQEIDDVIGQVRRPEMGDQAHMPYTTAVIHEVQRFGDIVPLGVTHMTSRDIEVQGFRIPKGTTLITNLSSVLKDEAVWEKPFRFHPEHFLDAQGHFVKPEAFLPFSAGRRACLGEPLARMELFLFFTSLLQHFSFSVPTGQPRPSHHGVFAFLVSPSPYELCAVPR
T1 sequence (P33261 whole entry): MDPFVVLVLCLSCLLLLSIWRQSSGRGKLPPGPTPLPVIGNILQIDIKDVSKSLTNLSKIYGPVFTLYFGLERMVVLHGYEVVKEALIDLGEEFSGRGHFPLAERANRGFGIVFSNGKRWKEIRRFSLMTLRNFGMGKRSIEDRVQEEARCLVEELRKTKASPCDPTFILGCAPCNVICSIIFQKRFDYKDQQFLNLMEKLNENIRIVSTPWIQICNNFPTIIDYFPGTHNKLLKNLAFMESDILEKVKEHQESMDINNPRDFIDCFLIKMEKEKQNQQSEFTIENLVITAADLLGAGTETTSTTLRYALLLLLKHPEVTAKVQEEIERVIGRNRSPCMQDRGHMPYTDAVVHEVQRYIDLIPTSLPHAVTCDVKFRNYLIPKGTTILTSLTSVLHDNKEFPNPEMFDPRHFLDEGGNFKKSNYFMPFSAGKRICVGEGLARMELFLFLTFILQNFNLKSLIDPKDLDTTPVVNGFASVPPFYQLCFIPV
T6 sequence (P11712 whole entry): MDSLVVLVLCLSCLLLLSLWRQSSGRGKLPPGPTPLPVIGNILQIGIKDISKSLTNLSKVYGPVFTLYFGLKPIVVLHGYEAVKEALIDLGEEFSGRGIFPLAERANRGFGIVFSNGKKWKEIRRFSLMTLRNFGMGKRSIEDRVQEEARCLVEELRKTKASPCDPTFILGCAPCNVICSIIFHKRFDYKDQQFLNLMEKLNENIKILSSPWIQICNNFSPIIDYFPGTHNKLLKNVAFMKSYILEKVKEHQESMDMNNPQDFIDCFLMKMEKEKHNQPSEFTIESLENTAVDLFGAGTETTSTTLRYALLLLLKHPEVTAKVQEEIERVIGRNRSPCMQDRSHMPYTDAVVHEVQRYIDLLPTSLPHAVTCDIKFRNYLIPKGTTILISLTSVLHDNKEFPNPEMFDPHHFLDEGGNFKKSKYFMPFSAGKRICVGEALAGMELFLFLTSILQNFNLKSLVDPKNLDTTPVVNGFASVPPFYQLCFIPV
T4 sequence (P08684 whole entry): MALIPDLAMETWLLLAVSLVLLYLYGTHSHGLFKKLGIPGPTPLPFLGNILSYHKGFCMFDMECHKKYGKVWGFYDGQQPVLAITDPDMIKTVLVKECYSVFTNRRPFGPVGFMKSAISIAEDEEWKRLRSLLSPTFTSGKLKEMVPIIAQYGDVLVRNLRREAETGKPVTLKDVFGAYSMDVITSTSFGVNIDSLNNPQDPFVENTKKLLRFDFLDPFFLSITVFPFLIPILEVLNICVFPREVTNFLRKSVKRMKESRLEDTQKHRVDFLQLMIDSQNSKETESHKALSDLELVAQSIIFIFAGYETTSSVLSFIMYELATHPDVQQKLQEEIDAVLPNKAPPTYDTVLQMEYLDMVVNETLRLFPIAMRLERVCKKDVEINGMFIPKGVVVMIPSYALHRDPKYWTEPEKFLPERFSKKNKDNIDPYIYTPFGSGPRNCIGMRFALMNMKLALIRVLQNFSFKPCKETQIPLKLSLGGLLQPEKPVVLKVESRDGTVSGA

Consider `Oc1cccc(-c2ccc(-c3cccc(O)c3)cc2)c1` [Compound 42, [1,1′,4′,1″]Terphenyl-3,3′-diol], for which the “Half life” value in “in vitro” was found to be 22.7 min. In addition, the IC50 was determined as 4.2 ± 0.29 µM on CYP2C19; 7.68 ± 0.92 µM on CYP2B6; 22 ± 0.29 µM on CYP2D6; 2.13 ± 0.13 µM on CYP3A4; 0.11 µM on 17β-HSD1; 1.94 ± 0.1 µM at CYP2C9. Moreover, the “Papp [cm/sec ± rel. SD]” value in the data set with CaCo-2 cells was “(12.5 ± 9.0) · 10^−6 cm/sec”. Also, in the data set with CaCo-2 cells, the “Permeability (class in words)” value is “high”. On 17β-HSD1, the “Selectivity IC50 (17β-HSD2)/IC50 (17β-HSD1)” value is on record as 21.
`Oc1ccc(-c2ccsc2-c2cccc(O)c2)cc1` [Compound 28, 3-[3-(4-Hydroxyphenyl)-2-thienyl]phenol] showed a half-life in “in vitro” of 10.6 min. The IC50 at CYP2C19 stood at 3.37 ± 0.12 µM; at CYP2B6 it was 18.8 ± 2.05 µM; on CYP2D6 it was 6.99 ± 0.02 µM; on CYP3A4, 7.36 ± 0.49 µM; at 17β-HSD1 it was 3.4 µM; on CYP2C9, 2.98 ± 0.02 µM. The “Permeability (class in words)” value with CaCo-2 cells was “high”. The “Selectivity IC50 (17β-HSD2)/IC50 (17β-HSD1)” value on 17β-HSD1 came out at 0.5.
